Source: ChEMBL document CHEMBL3044779, “The action of herbicides on fatty acid biosynthesis and elongation in barley and cucumber” (Pest Manag Sci, 2010)
The source made the active and inactive calls. No cut-off for these calls is given here.

How the values were obtained:
Cucumis sativus [1] = assay: Inhibition of fatty acid synthesis in Cucumis sativus (cucumber) using [14C]acetate assessed as reduction in [14C]-labeled 24C fatty acid level at 100 uM after 3 hr by liquid scintillation counting relative to control; format: functional, organism-based
Hordeum vulgare [2] = assay: Inhibition of fatty acid synthesis in Hordeum vulgare (barley) using [14C]malonate assessed as [14C]-labeled 24C fatty acid level at 100 uM after 3 hr by liquid scintillation counting (reference value: 20 +/- 1.2%); format: functional; set-up: scale not given: the % may be the effect or the level left
Hordeum vulgare [3] = assay: Inhibition of fatty acid synthesis in Hordeum vulgare (barley) using [14C]acetate assessed as [14C]-labeled 24C fatty acid level at 100 uM after 3 hr by liquid scintillation counting (reference value: 5 +/- 0.8%); format: functional; set-up: scale not given: the % may be the effect or the level left
Cucumis sativus [4] = assay: Inhibition of fatty acid synthesis in Cucumis sativus (cucumber) using [14C]malonate assessed as [14C]-labeled 22C fatty acid level at 100 uM after 3 hr by liquid scintillation counting (reference value: 48.5 +/- 6.4%); format: functional; set-up: scale not given: the % may be the effect or the level left
Cucumis sativus [5] = assay: Inhibition of fatty acid synthesis in Cucumis sativus (cucumber) using [14C]acetate assessed as [14C]-labeled 22C fatty acid level at 100 uM after 3 hr by liquid scintillation counting (reference value: 25.5 +/- 2%); format: functional; set-up: scale not given: the % may be the effect or the level left
Hordeum vulgare [6] = assay: Inhibition of fatty acid synthesis in Hordeum vulgare (barley) using [14C]malonate assessed as [14C]-labeled 26C fatty acid level at 100 uM after 3 hr by liquid scintillation counting (reference value: 8.3 +/- 0.4%); format: functional; set-up: scale not given: the % may be the effect or the level left
Cucumis sativus [7] = assay: Inhibition of fatty acid synthesis in Cucumis sativus (cucumber) using [14C]malonate assessed as [14C]-labeled 24C fatty acid level at 100 uM after 3 hr by liquid scintillation counting (reference value: 9 +/- 2.5%); format: functional; set-up: scale not given: the % may be the effect or the level left
Hordeum vulgare [8] = assay: Inhibition of fatty acid synthesis in Hordeum vulgare (barley) using [14C]malonate assessed as [14C]-labeled 22C fatty acid level at 100 uM after 3 hr by liquid scintillation counting (reference value: 31.3 +/- 1.6%); format: functional; set-up: scale not given: the % may be the effect or the level left
Hordeum vulgare [9] = assay: Inhibition of fatty acid synthesis in Hordeum vulgare (barley) using [14C]acetate assessed as [14C]-labeled 22C fatty acid level at 100 uM after 3 hr by liquid scintillation counting (reference value: 8.3 +/- 0.9%); format: functional; set-up: scale not given: the % may be the effect or the level left
Cucumis sativus [10] = assay: Inhibition of fatty acid synthesis in Cucumis sativus (cucumber) using [14C]malonate assessed as [14C]-labeled 20C fatty acid level at 100 uM after 3 hr by liquid scintillation counting (reference value: 11.5 +/- 3%); format: functional; set-up: scale not given: the % may be the effect or the level left
Cucumis sativus [11] = assay: Inhibition of fatty acid synthesis in Cucumis sativus (cucumber) using [14C]acetate assessed as [14C]-labeled 20C fatty acid level at 100 uM after 3 hr by liquid scintillation counting (reference value: 9 +/- 0.9%); format: functional; set-up: scale not given: the % may be the effect or the level left
Hordeum vulgare [12] = assay: Inhibition of fatty acid synthesis in Hordeum vulgare (barley) using [14C]malonate assessed as [14C]-labeled 20C fatty acid level at 100 uM after 3 hr by liquid scintillation counting (reference value: 14.5 +/- 1.7%); format: functional; set-up: scale not given: the % may be the effect or the level left
Hordeum vulgare [13] = assay: Inhibition of fatty acid synthesis in Hordeum vulgare (barley) using [14C]acetate assessed as [14C]-labeled 20C fatty acid level at 100 uM after 3 hr by liquid scintillation counting (reference value: 3.8 +/- 0.6%); format: functional; set-up: scale not given: the % may be the effect or the level left
Cucumis sativus [14] = assay: Inhibition of fatty acid synthesis in Cucumis sativus (cucumber) using [14C]malonate assessed as [14C]-labeled 18C fatty acid level at 100 uM after 3 hr by liquid scintillation counting (reference value: 22.5 +/- 2.2%); format: functional; set-up: scale not given: the % may be the effect or the level left
Cucumis sativus [15] = assay: Inhibition of fatty acid synthesis in Cucumis sativus (cucumber) using [14C]acetate assessed as [14C]-labeled 18C fatty acid level at 100 uM after 3 hr by liquid scintillation counting (reference value: 26.6 +/- 1.6%); format: functional; set-up: scale not given: the % may be the effect or the level left
Hordeum vulgare [16] = assay: Inhibition of fatty acid synthesis in Hordeum vulgare (barley) using [14C]malonate assessed as [14C]-labeled 18C fatty acid level at 100 uM after 3 hr by liquid scintillation counting (reference value: 22.8 +/- 2.7%); format: functional; set-up: scale not given: the % may be the effect or the level left
Hordeum vulgare [17] = assay: Inhibition of fatty acid synthesis in Hordeum vulgare (barley) using [14C]acetate assessed as [14C]-labeled 18C fatty acid level at 100 uM after 3 hr by liquid scintillation counting (reference value: 53.7 +/- 0.7%); format: functional; set-up: scale not given: the % may be the effect or the level left
Cucumis sativus [18] = assay: Inhibition of fatty acid synthesis in Cucumis sativus (cucumber) using [14C]malonate assessed as [14C]-labeled 16C fatty acid level at 100 uM after 3 hr by liquid scintillation counting (reference value: 8.5 +/- 1.4%); format: functional; set-up: scale not given: the % may be the effect or the level left
Cucumis sativus [19] = assay: Inhibition of fatty acid synthesis in Cucumis sativus (cucumber) using [14C]acetate assessed as [14C]-labeled 16C fatty acid level at 100 uM after 3 hr by liquid scintillation counting (reference value: 31.9 +/- 5%); format: functional; set-up: scale not given: the % may be the effect or the level left
Hordeum vulgare [20] = assay: Inhibition of fatty acid synthesis in Hordeum vulgare (barley) using [14C]malonate assessed as [14C]-labeled 16C fatty acid level at 100 uM after 3 hr by liquid scintillation counting (reference value: 3.1 +/- 0.6%); format: functional; set-up: scale not given: the % may be the effect or the level left
Hordeum vulgare [21] = assay: Inhibition of fatty acid synthesis in Hordeum vulgare (barley) using [14C]acetate assessed as [14C]-labeled 16C fatty acid level at 100 uM after 3 hr by liquid scintillation counting (reference value: 29.2 +/- 2.1%); format: functional; set-up: scale not given: the % may be the effect or the level left
Cucumis sativus [22] = assay: Inhibition of fatty acid synthesis in Cucumis sativus (cucumber) assessed as inhibition of [14C]malonate incoporation in total fatty acids at 100 uM measured as total disintegration per g of fresh weight after 3 hr by liquid scintillation counting (reference value: 7.6 +/- 1.6%); format: functional
Cucumis sativus [23] = assay: Inhibition of fatty acid synthesis in Cucumis sativus (cucumber) assessed as inhibition of [14C]acetate incoporation in total fatty acids at 100 uM measured as total disintegration per g of fresh weight after 3 hr by liquid scintillation counting (reference value: 12.1 +/- 1.4%); format: functional
Hordeum vulgare [24] = assay: Inhibition of fatty acid synthesis in Hordeum vulgare (barley) assessed as inhibition of [14C]malonate incoporation in total fatty acids at 100 uM measured as total disintegration per g of fresh weight after 3 hr by liquid scintillation counting (reference value: 8.8 +/- 2.4%); format: functional
Hordeum vulgare [25] = assay: Inhibition of fatty acid synthesis in Hordeum vulgare (barley) assessed as inhibition of [14C]acetate incoporation in total fatty acids at 100 uM measured as total disintegration per g of fresh weight after 3 hr by liquid scintillation counting (reference value: 9.2 +/- 2.4%); format: functional
Acetyl-CoA carboxylase [26] = target: T1, Acetyl-CoA carboxylase (Zea mays, UniProt Q3V4E6); assay: Inhibition of Zea mays (maize) chloroplastic ACCase using acetyl-coA as substrate assessed as inhibition of [14C]NaHCO3 incorporation into malonyl-coA incubated for 10 min prior to substrate addition measured for 20 min by liquid scintillation counting
T1 sequence (Q3V4E6 whole entry): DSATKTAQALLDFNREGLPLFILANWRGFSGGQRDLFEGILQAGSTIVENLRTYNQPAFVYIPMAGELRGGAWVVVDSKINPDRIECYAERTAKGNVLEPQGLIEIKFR

Acetyl-CoA carboxylase [27] = target: T1, Acetyl-CoA carboxylase; assay: Inhibition of Zea mays (maize) cytosolic ACCase using acetyl-coA as substrate assessed as inhibition of [14C]NaHCO3 incorporation into malonyl-coA incubated for 10 min prior to substrate addition measured for 20 min by liquid scintillation counting

What does the source list for Cc1sc(-c2ccc(Cl)cc2)nc1C1C(=O)CC2(CCCCC2)C1=O (configuration not stated) [Spiro-decanedione A]?
inhibition (Cucumis sativus [1]): Active; Activity (Hordeum vulgare [2]): 25.3%; Activity (Hordeum vulgare [3]): 16.8%; Activity (Cucumis sativus [4]): 43%; Activity (Cucumis sativus [5]): 2.3%; Activity (Hordeum vulgare [6]): 8.2%; Activity (Cucumis sativus [7]): 10%; Activity (Hordeum vulgare [8]): 31.2%; Activity (Hordeum vulgare [9]): 33.7%; Activity (Cucumis sativus [10]): 18.1%; Activity (Cucumis sativus [11]): 3.4%; Activity (Hordeum vulgare [12]): 15.8%; Activity (Hordeum vulgare [13]): 24.4%; Activity (Cucumis sativus [14]): 20%; Activity (Cucumis sativus [15]): 43.8%; Activity (Hordeum vulgare [16]): 18.6%; Activity (Hordeum vulgare [17]): 20.5%; Activity (Cucumis sativus [18]): 8.9%; Activity (Cucumis sativus [19]): 50.5%; Activity (Hordeum vulgare [20]): 0.9%; Activity (Hordeum vulgare [21]): 4.6%; Activity (Cucumis sativus [22]): 12.7 ×10⁶ dpm; Activity (Cucumis sativus [23]): 14.3 ×10⁶ dpm; Activity (Hordeum vulgare [24]): 9.9 ×10⁶ dpm; Activity (Hordeum vulgare [25]): 3.6 ×10⁶ dpm; IC50 (Acetyl-CoA carboxylase [26]): 8 nM; IC50 (Acetyl-CoA carboxylase [27]): 20 nM
